Experimental findings from patent publication US12589087B2, “Enantiomer selective action on neurotransmission” (The Board of Trustees of the Leland Stanford Junior …, priority 2021, dated 2026) are described below.

For one data set, the system named is AMPA nonspecific. As to the kind of experiment: radioligand binding assay, cerebral cortex membranes, [3H]AMPA. The settings on record: AMPA nonspec, rat; 100 μM. The method, then: Nonspecific AMPA, kainate and NMDA binding assays were performed by Eurofins Discovery (Cerep) using rat cerebral cortex membranes and radiolabeled [^3H]AMPA, [^3H]kainic acid and [^3H]CGP 39653, respectively. All compounds were tested at a single concentration of 100 uM in triplicate. mGluR1, mGluR2, mGluR5 and GABAB binding assays were performed by Eurofins Discovery. mGluR1 assay was performed using rat cerebellum membranes and radiolabeled [^3H]quisqalic acid. mGluR2 assay was performed using recombinant Chem-1 cells and [^3H]LY341495. mGluR5 and GABAB binding assays were performed using recombinant CHO-K1 cells and […], respectively. All compounds were tested at a single concentration of 100 uM in triplicate.
All receptor assays were performed exactly as described in Example 1. Functional assays of all GABAA, NMDA (GluN2A-GluN2D) and AMPA (GluA2) receptor subunits were performed by SB Drug Discovery as a part of their CNS discovery panel using FLIPR technology. All compounds were tested at 7 concentrations in triplicate and EC50/IC50 was determined where applicable. Functional GABAB assay was performed by Eurofins Discovery (Cerep) using Ca^2+-dependent fluorimetry in RBL cells expressing human GABAB (B1/B2) receptor. All compounds were tested at a single concentration of 100 uM in triplicate. […]

The subject of data set [1] is mouse cerebral synaptosomes. The data set can be described thus: Synaptosomal neurotransmitter uptake assay. Format: cell-based. The conditions noted are these: 10 μM substrate; for transport into synaptosomes: 37° C. On the procedure:
To each tube, 5 μL of a test compound solution (final concentration 10 μM) in Buffer KRP or Buffer KRP alone were added. Samples were incubated at 4° C. or 37° C. for 1, 10, or 30 min and then immediately centrifuged and washed twice by resuspension-centrifugation with Buffer S (0.5 mL). Resulting pellets were resuspended in 170 μL of 0.1% aqueous formic acid and mixed with 330 μL of ACN.
96-well plate experiments: 250 μL aliquots of the synaptosome suspension were transferred to two 0.8-mL 96 well plates, one on ice (0° C. samples only) and one in a thermoblock (37° C. samples only), and equilibrated for 10 min. 5 μL of a test compound (0.5 mM; final concentration: 10 μM) in Buffer KRP or Buffer KRP blank were added 10, 20 or 30 min before the incubation termination. “0 min” samples were prepared by placing the test compound solution in a separate pre-chilled V-shape bottom 2-mL 96 well plate; at the end of incubation 200 μL aliquots of all samples were transferred to the 2-mL 96 well plate and centrifuged (2,500 g for 15 min at 4° C.) immediately. The resulting pellets were rinsed with Buffer KRP, followed by centrifugation, twice, then resuspended in 200 μL of 60% ACN containing 2.5 μM Glu-d5 as internal standard and stored at −80° C. until analysis.
Synaptosome uptake and high potassium-induced release assays were performed as described in Example 1. Uptake assays used 250 μL aliquots of the synaptosome suspension transferred to a pre-chilled 0.8 mL 96 well plate. 5 μL of a test compound solution (0.5 mM; final concentration: 10 μM to compare directly to our previous work was added to each well and incubated at 0° C. or 37° C. After 10, 20 or 30 min, samples were chilled on ice and immediately sedimented (2,500 g for 15 min at 4° C.) and washed with Buffer S (0.5 mL, ×2). Resulting pellets were resuspended in 200 μL of 60% ACN containing 5 μM GABA-d6 and stored at −80° C. until analysis. Potassium-induced release assay used 500 μL aliquots of the synaptosome suspension transferred to pre-chilled microcentrifuge tubes. 2.5 μL of a test compound solution (20 mM; final concentration: 100 μM) in Buffer KRP was added to each tube and incubated for 15 min at 37° C., briefly chilled on ice, and then immediately sedimented (8,000 g for 4 min at 4° C.) and washed with Buffer KRP, followed by centrifugation, twice. The resulting pellets were resuspended in 500 μL of Buffer KRP or Buffer K-KRP and incubated for 5, 10 or 15 min at 37° C., sedimented (8,000 g for 4 min at 4° C.), and washed with Buffer KRP. Resulting pellets were resuspended in 400 μL of 60% ACN containing 2.5 μM GABA-d6 as internal standard and stored at −80° C. until analysis.

The test system of data set [2] is mouse hippocampal slice cultures. The data set can be described thus: Kainic acid neurodegeneration in hippocampal slice cultures (propidium iodide). The data set is classed as cell-based. The method, then: We employed a standard technique of ex vivo experimentation to determine the efficacy of 2MeGlu, 2MeGln, and 4APA to prevent neurodegeneration. Mouse hippocampal slice cultures were prepared and then exposed to one of the three test compounds at either 5 or 50 μM for one hour. Then media was changed to contain either 2 or 5 μM kanic acid (KA) for 24 hr. […] After 24, the amount of neurodegeneration was assayed with propidium iodide staining. Increasing the dose of KA led to greater neurodegeneration at 5 μM than at 2 μM.

The subject of the next data set is Line 61 mice. As to the kind of experiment: Transgenic α-synuclein mouse model, tapered beam test. The data set is classed as in vivo. An excerpt: Line 61 mice overexpress human α-synuclein under control of the mouse Thy-1 promoter. The transgene is X-linked so females have variable transgene expression; for this reason, we focused on male mice. […] Categorical data from the tapered beam task were unblinded and analyzed by X square test (P<0.005).

Each structure is given as a SMILES string.

As to `C[C@@](N)(CCC(=O)O)C(=O)O` [(R)-2MeGlu, (R)-2-methylglutamic acid], the “% of radioligand binding inhibition” value with AMPA nonspecific is 15%. For the same compound, the transport into synaptosomes entry in data set [1] is on record as “transported into synaptosomes”.

Regarding `CC(N)(CCC(N)=O)C(=O)O` (racemic) [rac-2MeGln, rac-2-methylglutamine], the reduction of neurodegeneration result in data set [2] (50 μM compound, lower dose of KA (2 μM)) was “approximately 50%”. Further, in data set [2] (5 or 50 μM compound, 5 μM KA), the “neuroprotection at the higher dose of KA” value is recorded as “Neither dose of 2MeGlu or 2MeGln was neuroprotective”.

Turning to `C[C@](N)(CCC(=O)O)C(=O)O` [(S)-2MeGlu, (S)-2-methylglutamic acid], in the data set on AMPA nonspecific, the “% of radioligand binding inhibition” value was found to be 12%. The transport into synaptosomes entry in data set [1] was “transported into synaptosomes”. In addition, the “synaptosomal uptake, faster than the R enantiomer” value in data set [1] (temperature-dependent uptake) is “approximately 3 fold”. Moreover, the “body weight or deaths” value in the data set with Line 61 mice (5 or 50 mg/kg/d IP, seven days) is “no change in body weight or deaths”. Further, in the data set with Line 61 mice (7 days IP, high dose (50 mg/kg/d) S-2MeGlu, either dose (5 or 50 mg/kg/d) R-4APA), the “motor function, tapered beam” value is “improved motor function similar to WT mice”. The “α-synuclein accumulation in brain by immunohistochemistry vs vehicle” value in the data set on Line 61 mice (Line 61 mice) was “no significant change”.
